{
  "source": "patent US11807624B2",
  "about": "“Substituted pyrimidinones as agonists of the APJ receptor” (AMGEN INC., priority 2018, dated 2023)",
  "data": [
    {"molecular_target": "human APJ receptor (Homo sapiens (Human), UniProt P35414)", "sequence (P35414 whole entry)": "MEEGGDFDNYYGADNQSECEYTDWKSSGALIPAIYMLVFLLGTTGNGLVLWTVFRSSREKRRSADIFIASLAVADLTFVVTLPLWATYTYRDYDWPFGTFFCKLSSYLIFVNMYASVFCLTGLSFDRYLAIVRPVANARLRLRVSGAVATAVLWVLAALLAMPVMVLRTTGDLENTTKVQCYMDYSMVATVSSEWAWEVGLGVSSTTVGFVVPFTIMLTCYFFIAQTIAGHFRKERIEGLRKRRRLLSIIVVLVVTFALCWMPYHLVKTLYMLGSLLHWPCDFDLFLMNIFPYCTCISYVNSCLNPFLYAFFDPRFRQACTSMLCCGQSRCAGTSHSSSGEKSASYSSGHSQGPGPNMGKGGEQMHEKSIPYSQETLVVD", "experiment": "[35S]GTPγS binding assay (hAPJ SPA)", "format": "biochemical", "conditions": "membranes from CHO cells stably expressing human APJ receptor, read-out: Activity hAPJ SPA EC50 IP", "procedure": "[^35S]GTPγS Binding The human APJ receptor was cloned by polymerase chain reaction and the gene encoding the receptor was subcloned in pFLAG-CMV™-3 expression vector (Sigma, Saint Louis, Mo. USA) in-house at Amgen. A GTPγS binding assay was performed on membranes prepared from CHO cells stably expressing human APJ receptor. The optimum experimental conditions for the concentrations of GDP, MgCl2, and NaCl in the assay buffer were initially determined. […] Incubation was at RT for 90 min and the microplate was read using a ViewLux™ ultra HTS Microplate Imager (PerkinElmer, Inc.). All the results presented are means of several independent experiments and analyzed by non-linear regression methods using the commercially available program Prism (GraphPad, San Diego, Calif.) providing the EC50 values detailed in Table 3.", "units": {"EC50": "nM"}, "values": [
      {"compound": "CCCCc1nc(O)c(NS(=O)(=O)C2CCCCC2)c(=O)n1-c1c(OC)cccc1OC", "note": "[Example 4.9, N-(2-butyl-1-(2,6-dimethoxyphenyl)-4-hydroxy-6-oxo-1,6-dihydro-5-pyrimidinyl)cyclohexanesulfonamide]", "EC50": 193},
      {"compound": "CCCCc1nc(O)c(NS(=O)(=O)[C@@H](C)[C@H](OC)c2ncc(C)cn2)c(=O)n1-c1c(OC)cccc1OC", "note": "[Example 4.8, (1R,2S)-N-(2-butyl-1-(2,6-dimethoxyphenyl)-4-hydroxy-6-oxo-1,6-dihydropyrimidin-5-yl)-1-methoxy-1-(5-methylpyrimidin-2-yl)propane-2-sulfonamide]", "EC50": 86},
      {"compound": "CCCCc1nc(O)c(NS(=O)(=O)[C@@H](C)[C@H](C)c2ncc(F)cn2)c(=O)n1-c1c(OC)cccc1OC", "note": "[Example 4.2, (2S,3R)-N-(2-butyl-1-(2,6-dimethoxyphenyl)-4-hydroxy-6-oxo-1,6-dihydropyrimidin-5-yl)-3-(5-fluoropyrimidin-2-yl)butane-2-sulfonamide]", "EC50": 27},
      {"compound": "CCCCc1nc(O)c(NS(=O)(=O)CCc2ncc(F)cn2)c(=O)n1-c1c(OC)cccc1OC", "note": "[Example 4.0, N-(2-Butyl-1-(2,6-dimethoxyphenyl)-4-hydroxy-6-oxo-1,6-dihydropyrimidin-5-yl)-2-(5-fluoropyrimidin-2-yl)ethane-1-sulfonamide]", "EC50": 30},
      {"compound": "CCCCc1nc(O)c(NS(=O)(=O)Cc2ccccc2)c(=O)n1-c1c(OC)cccc1OC", "note": "[Example 4.3, N-(2-butyl-1-(2,6-dimethoxyphenyl)-4-hydroxy-6-oxo-1,6-dihydropyrimidin-5-yl)-1-phenylmethanesulfonamidesulfonamide]", "EC50": 194},
      {"compound": "COc1cccc(OC)c1-n1c(C2CCCC2)nc(O)c(NS(=O)(=O)CCc2ncc(F)cn2)c1=O", "note": "[Example 4.17, N-[2-cyclopentyl-1-(2,6-dimethoxyphenyl)-4-hydroxy-6-oxo-pyrimidin-5-yl]-2-(5-fluoropyrimidin-2-yl)ethanesulfonamide]", "EC50": 2.8},
      {"compound": "CCCCc1nc(O)c(NS(=O)(=O)C(C)C)c(=O)n1-c1c(OC)cccc1OC", "note": "[Example 4.1, N-(2-butyl-1-(2,6-dimethoxyphenyl)-4-hydroxy-6-oxo-1,6-dihydropyrimidin-5-yl)propane-2-sulfonamide]", "EC50": 745},
      {"compound": "CCCCc1nc(O)c(NS(=O)(=O)[C@H]2CCCN(c3ncc(F)cn3)C2)c(=O)n1-c1c(OC)cccc1OC", "note": "(single isomer, unassigned) [Example 4.7, (S)-N-(2-butyl-1-(2,6-dimethoxyphenyl)-4-hydroxy-6-oxo-1,6-dihydropyrimidin-5-yl)-1-(5-fluoropyrimidin-2-yl)piperidine-3-sulfonamide or (R)-N-(2-butyl-1-(2,6-dimethoxyphenyl)-4-hydroxy-6-oxo-1,6-dihydropyrimidin-5-yl)-1-(5-fluoropyrimidin-2-yl)piperidine-3-sulfonamide]", "EC50": 78},
      {"compound": "CCCCc1nc(O)c(NS(=O)(=O)CCc2ccccc2)c(=O)n1-c1c(OC)cccc1OC", "note": "[Example 4.4b, N-(2-butyl-1-(2,6-dimethoxyphenyl)-4-hydroxy-6-oxo-1,6-dihydropyrimidin-5-yl)-2-phenylethane-1-sulfonamide]", "EC50": 193},
      {"compound": "CCCCc1nc(O)c(NS(=O)(=O)c2ccccc2)c(=O)n1-c1c(OC)cccc1OC", "note": "[Example 4.4a, N-(2-butyl-1-(2,6-dimethoxyphenyl)-4-hydroxy-6-oxo-1,6-dihydropyrimidin-5-yl)benzenesulfonamide]", "EC50": 244},
      {"compound": "CCCCc1nc(O)c(NS(=O)(=O)C[C@H](C)c2ncc(F)cn2)c(=O)n1-c1c(OC)cccc1OC", "note": "(single isomer, unassigned) [Example 4.5, (R)-N-(2-butyl-1-(2,6-dimethoxyphenyl)-4-hydroxy-6-oxo-1,6-dihydropyrimidin-5-yl)-2-(5-fluoropyrimidin-2-yl)propane-1-sulfonamide or (S)-N-(2-butyl-1-(2,6-dimethoxyphenyl)-4-hydroxy-6-oxo-1,6-dihydropyrimidin-5-yl)-2-(5-fluoropyrimidin-2-yl)propane-1-sulfonamide]", "EC50": 11},
      {"compound": "COc1cccc(OC)c1-n1c(-c2ccccc2)nc(O)c(NS(=O)(=O)CCc2ncc(F)cn2)c1=O", "note": "[Example 4.24, N-[1-(2,6-dimethoxyphenyl)-4-hydroxy-6-oxo-2-phenyl-pyrimidin-5-yl]-2-(5-fluoropyrimidin-2-yl)ethanesulfonamide]", "EC50": 1.5},
      {"compound": "CCCCc1nc(O)c(NS(=O)(=O)C[C@@H](C)c2ncc(F)cn2)c(=O)n1-c1c(OC)cccc1OC", "note": "(single isomer, unassigned) [Example 4.6, (S)-N-(2-butyl-1-(2,6-dimethoxyphenyl)-4-hydroxy-6-oxo-1,6-dihydropyrimidin-5-yl)-2-(5-fluoropyrimidin-2-yl)propane-1-sulfonamide or (R)-N-(2-butyl-1-(2,6-dimethoxyphenyl)-4-hydroxy-6-oxo-1,6-dihydropyrimidin-5-yl)-2-(5-fluoropyrimidin-2-yl)propane-1-sulfonamide]", "EC50": 20}
    ]},
    {"molecular_target": "human APJ-AT1R (angiotensin Type 1) double stable CHO cell line (Homo sapiens (Human), UniProt P35414)", "sequence (P35414 whole entry)": "as above", "experiment": "IP1 accumulation (TR-FRET), APJ-AT1R double stable CHO cell line", "format": "cell-based", "conditions": "in the presence of AngII and APJ small molecule agonists", "protocol": "Single and double stable recombinant cell lines were generated for human APJ and the AT1R receptor in CHO K1 cells tagged either with FLAG or hemagglutinin (HA) tag. Briefly, the CHO-K1 APJ/AT1R cells were seeded in culture medium of DMEM-F12 and 10% FBS at a density of 15 k/well in a 96 well plate overnight. The next day, the culture medium was replaced with medium containing no serum for 4 hours. The compound AngII at a range of concentrations (1 pM-10 μM) with or without different concentrations of APJ agonists were diluted in stimulation buffer and added to the cell plate. The plate was sealed and incubated for 1 hour. This was followed by addition of IP-d2 conjugate followed by europium cryptate antibody conjugate into the wells. The plate was sealed, followed with incubation for 2 hours at RT. Time-resolved fluorescence resonance energy (TR-FRET) at 620 nm and 665 nm was measured after 2 horns with an Envision reader. The signal ratios and delta F were calculated and the amount of IP1 produced was inversely proportional to the TR-FRET ratio, 665/620 nm.", "values": [
      {"compound": "CCCCc1nc(Cl)c(CO)n1Cc1ccc(-c2ccccc2-c2nn[nH]n2)cc1", "note": "[losartan]", "effect of AT1R blockade on APJ agonist-induced cooperativity": "relieved this cooperativity and resulted in synergistic effects of enhancing the efficacy of the APJ receptor"}
    ]},
    {"tested_on": "heart failure rats", "experiment": "Cardiac function in heart failure rats in vivo", "set-up": "species or system rat", "conditions": "captopril alone, acute settings", "description": "The interaction between […] (ACE2) and Apelin biology is complicated. To investigate the interaction between the Apelin-APJ and ACE signalling pathways, we examined the improvement in cardiac function with APJ small molecule agonists in the presence of ACE inhibitor captopril in heart failure rats in vivo. […] However, in the presence of an APJ agonist, there was a shift in potency to the left with marked improvement in contractility and ejection fraction without changes in heart rate. These findings provide a new reference for the understanding of the regulation of ACE2 for the renin angiotensin aldosterone system (RAAS), independent of AT1R signaling and offer new potential drug targets for the treatment of diseases such as hypertension and heart failure. This work clearly establishes that combination of an agonist of the APJ receptor with an ARB such as losartan and/or with an ACE inhibitor such as captopril which may play an important role in providing greater efficacy in treating heart failure patients, for example in improving contractility and ejection fraction without changing the heart rate.", "values": [
      {"compound": "C[C@H](CS)C(=O)N1CCC[C@H]1C(=O)O", "note": "[Captopril, captopril]", "improvement in contractility or ejection fraction": "does not show a marked improvement in contractility or ejection fraction acutely"}
    ]},
    {"molecular_target": "human AT1R receptor expressed in the CHO cell line (Homo sapiens (Human), UniProt P30556)", "sequence (P30556 whole entry)": "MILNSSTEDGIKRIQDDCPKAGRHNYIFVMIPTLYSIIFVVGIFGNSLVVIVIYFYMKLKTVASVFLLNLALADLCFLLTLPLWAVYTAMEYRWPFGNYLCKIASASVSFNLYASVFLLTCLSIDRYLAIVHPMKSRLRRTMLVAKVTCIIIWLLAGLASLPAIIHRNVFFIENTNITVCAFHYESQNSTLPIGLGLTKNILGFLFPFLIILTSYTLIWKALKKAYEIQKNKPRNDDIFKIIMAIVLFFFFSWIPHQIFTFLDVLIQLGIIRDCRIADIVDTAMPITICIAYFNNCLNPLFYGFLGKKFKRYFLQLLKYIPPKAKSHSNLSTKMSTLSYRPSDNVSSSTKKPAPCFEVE", "experiment": "not given", "conditions": "AT1R expressed alone, no APJ expression", "values": [
      {"compound": "pyr apelin-13", "cooperativity on AngII-induced IP1 response": "no positive cooperativity observed"}
    ]},
    {"tested_on": "isolated cardiomyocyctes", "experiment": "not given", "conditions": "isolated cardiomyocytes, exogenous apelin; cited from earlier work", "values": [
      {"compound": "apelin", "increase in sarcomere shortening": "up to 140%"}
    ]}
  ]
}
